This assay deals with T1, Recombinant human ATX (Homo sapiens, UniProt Q13822).
T1 construct: made in house; host or cells: human embryonic kidney (HEK) cells
The assay can be described thus: Assessing ATX inhibition: released choline, Amplex Red fluorescence. The conditions noted are these: read-out: IC50. It is filed as biochemical. The method, then:
LPC (oleoyl (18:1)) was purchased from Avanti Polar Lipids (Alabaster; AL) and solubilized in methanol to 20 mM. Amplex Red was obtained from Invitrogen Life Technologies (Paisley, UK) and dissolved in DMSO to 10 mM. Choline oxidase and horseradish peroxidase (HRP) were obtained from Sigma Aldrich (Dorset, UK) and dissolved in HBSS to 20 U/ml and 200 U/ml respectively. All reagents were stored at −20° C. in single use aliquots. All experimental measurements were performed in assay buffer made up immediately prior to use (HBSS, 0.01% BSA essentially fatty acid free).
Recombinant human ATX was prepared at Novartis (Basel, CH) in a human embryonic kidney (HEK) cell preparation, and stored in single use aliquots of […] (26 μM) stocks stored at −80° C.
All experimental measurements were performed in black 384 well polystyrene (low volume, round bottom, Corning (3676)) plates. PerkinElmer EnVision (Fluorescence Intensity/Absorbance Monochromator) or Tecan Infinite 200 PRO series plate reader was used to detect change in fluorescent intensity.
ATX activity was determined by measurement of released choline in reactions containing ATX (10 nM), choline oxidase (0.1 U/ml), HRP (100 U/ml), amplex red (50 μM) and LPC 18:1 (10 μM). Compounds of the invention were prepared as 10 point serial dilutions from 1 μM in duplicate and pre-incubated with ATX at 37° C. for 20 minutes prior to the addition of remaining reagents. The liberated choline was measured from changes in fluorescence intensity (λex 530 nm, λem 590 nm) of the product resurofin at 37° C. every 2 minutes over a 40-minute period. ATX activity was measured as a slope of the linear portion of the progress curve, typically between 14 to 24 minutes.
Slope data was exported to Graphpad prism (Graphpad software, San Diego, Calif.) where data was fitted to equation 1.
Y=Bottom+(Top−Bottom)/(1+10̂((Log IC50−X)*HillSlope)) Equation 1: […]

Setting [1] is: ATX 10 nM, LPC 18:1 10 μM, pre-incubated with ATX at 37° C. for 20 minutes, Table 1, exemplified compounds.
[2] abbreviates: same assay, compounds outside the scope of the invention.

pIC50: −log10 of the molar value. Like-named read-outs stand apart in the source and are kept apart here.

As for `O=C(CCCc1c[nH]nn1)NC1CCN(C(=O)OCc2ccc(C(F)(F)F)cc2)CC1` [Example 53, 4-(Trifluoromethyl)benzyl 4-(4-(1H-1,2,3-triazol-4-yl)butanamido)piperidine-1-carboxylate], the pIC50 under setting [1] was 7.40.
Same read-out and setting: the result for `O=C(CCCc1c[nH]nn1)NC1CCN(C(=O)CCc2ccc(C(F)(F)F)cc2)CC1` [Example 54, 4-(1H-1,2,3-Triazol-4-yl)-N-(1-(3-(4-(trifluoromethyl)phenyl)propanoyl)piperidin-4-yl)butanamide] reads 7.06; that for `O=C(CCCc1c[nH]nn1)NC1CCN(C(=O)COc2cc(Cl)cc(Cl)c2)CC1` [Example 55, N-(1-(2-(3,5-Dichlorophenoxy)acetyl)piperidin-4-yl)-4-(1H-1,2,3-triazol-4-yl)butanamide], 6.81.
Same read-out and setting: the figure for `Cc1cc(Cl)cc(COC(=O)N2CCC(NC(=O)CCCc3c[nH]nn3)CC2)c1` [Example 56, 3-Chloro-5-methylbenzyl 4-(4-(1H-1,2,3-triazol-4-yl)butanamido)piperidine-1-carboxylate] is 8.00; for `O=C(CCc1cnn[nH]1)NCC1CCN(C(=O)OCc2cc(Cl)cc(Cl)c2)CC1` [Example 57, 3,5-Dichlorobenzyl 4-((3-(1H-1,2,3-triazol-5-yl)propanamido)methyl)piperidine-1-carboxylate] it is 7.77.
As for `O=C(CCCc1c[nH]nn1)NC1CCN(C(=O)OCc2ccc(Cl)cc2Cl)CC1` [Example 58, 2,4-Dichlorobenzyl 4-(4-(1H-1,2,3-triazol-4-yl)butanamido)piperidine-1-carboxylate], the negative-log IC50 (pIC50) under setting [1] is 6.69.
On the same count and under the same terms, the figure for `O=C(CCCc1c[nH]nn1)NC1CCN(C(=O)OCCc2cc(Cl)cc(Cl)c2)CC1` [Example 59, 3,5-Dichlorophenethyl 4-(4-(1H-1,2,3-triazol-4-yl)butanamido)piperidine-1-carboxylate] is 7.62.
Still for that read-out and setting: the figure for `O=C(CCC1CCN(C(=O)OCc2cc(Cl)cc(Cl)c2)CC1)NCc1c[nH]nn1` [Example 60, 3,5-Dichlorobenzyl 4-(3-(((1H-1,2,3-triazol-4-yl)methyl)amino)-3-oxopropyl)piperidine-1-carboxylate] is 8.15; for `O=C(CC1CCN(C(=O)OCc2cc(Cl)cc(Cl)c2)CC1)NCCc1c[nH]nn1` [Example 61, 3,5-Dichlorobenzyl 4-(2-((2-(1H-1,2,3-triazol-4-yl)ethyl)amino)-2-oxoethyl)piperidine-1-carboxylate] it is 7.82.
Still for that read-out and setting: the figure for `Cc1cc(COC(=O)N2CCC(NC(=O)CCCc3c[nH]nn3)CC2)cc(C(F)(F)F)c1` [Example 62, 3-Methyl-5-(trifluoromethyl)benzyl 4-(4-(1H-1,2,3-triazol-4-yl)butanamido)piperidine-1-carboxylate] is 8.30.
With `O=C(CCCc1c[nH]nn1)NC1CCN(C(=O)OCc2cc(Br)cc(C(F)(F)F)c2)CC1` [Example 63, 3-Bromo-5-(trifluoromethyl)benzyl 4-(4-(1H-1,2,3-triazol-4-yl)butanamido)piperidine-1-carboxylate], under setting [1], the pIC50 is 8.52.
The same measure, in the same setting: the result for `N#Cc1cc(Cl)cc(COC(=O)N2CCC(NC(=O)CCCCc3c[nH]nn3)CC2)c1` [Example 64, 3-Chloro-5-cyanobenzyl 4-(5-(1H-1,2,3-triazol-4-yl)pentanamido)piperidine-1-carboxylate] reads 8.10; that for `N#Cc1cc(Cl)cc(COC(=O)N2CCC(NC(=O)CCc3c[nH]nn3)CC2)c1` [Example 65, 3-Chloro-5-cyanobenzyl 4-(3-(1H-1,2,3-triazol-4-yl)propanamido)piperidine-1-carboxylate], 7.59; that for `N#Cc1cc(COC(=O)N2CCC(NC(=O)CCCc3c[nH]nn3)CC2)cc(C(F)(F)F)c1` [Example 66, 3-Cyano-5-(trifluoromethyl)benzyl 4-(4-(1H-1,2,3-triazol-4-yl)butanamido)piperidine-1-carboxylate], 8.40.
Same read-out and setting: the figure for `O=C(CCCCCc1c[nH]nn1)NC1CCN(C(=O)OCc2cc(Cl)cc(Cl)c2)CC1` [Example 67, 3,5-Dichlorobenzyl 4-(6-(1H-1,2,3-triazol-4-yl)hexanamido)piperidine-1-carboxylate] is 8.40.
On the same count and under the same terms, the figure for `O=C(OCc1cc(Cl)cc(Cl)c1)N1CCC(CCCCCc2c[nH]nn2)CC1` [Example 68, 3,5-Dichlorobenzyl 4-(5-(1H-1,2,3-triazol-4-yl)pentyl)piperidine-1-carboxylate] is 6.50; for `N#Cc1cc(Cl)cc(COC(=O)N2CCC(CCCCCc3c[nH]nn3)CC2)c1` [Example 69, 3-Chloro-5-cyanobenzyl 4-(5-(1H-1,2,3-triazol-4-yl)pentyl)piperidine-1-carboxylate] it is 7.16.
Take `N#Cc1cc(COC(=O)N2CCC(NC(=O)CCCc3c[nH]nn3)CC2)cc(OC(F)(F)F)c1` [Example 70, 3-Cyano-5-(trifluoromethoxy)benzyl 4-(4-(1H-1,2,3-triazol-4-yl)butanamido)piperidine-1-carboxylate]: under setting [1], the negative logarithm of the IC50 (pIC50) was 8.30.
Same read-out and setting: the result for `Cc1cc(C#N)cc(COC(=O)N2CCC(NC(=O)CCCc3c[nH]nn3)CC2)c1` [Example 71, 3-Cyano-5-methylbenzyl 4-(4-(1H-1,2,3-triazol-4-yl)butanamido)piperidine-1-carboxylate] reads 7.89.
Turning to `N#Cc1cc(COC(=O)N2CCC(NC(=O)CCCc3c[nH]nn3)CC2)cc(Cl)c1Cl` [Example 72, 3,4-Dichloro-5-cyanobenzyl 4-(4-(1H-1,2,3-triazol-4-yl)butanamido)piperidine-1-carboxylate], the pIC50 under setting [1] is 8.15.
Still for that read-out and setting: the figure for `O=C(CCCc1c[nH]c(=O)s1)NC1CCN(C(=O)OCc2cc(Cl)cc(Cl)c2)CC1` [Example 73, 3,5-Dichlorobenzyl 4-(4-(2-oxo-2,3-dihydrothiazol-5-yl)butanamido)piperidine-1-carboxylate] is 8.70.
On the same count and under the same terms, the result for `O=C(CCCc1nnn[nH]1)NC1CCN(C(=O)OCc2cc(Cl)cc(Cl)c2)CC1` [Example 74, 3,5-Dichlorobenzyl 4-(4-(1H-tetrazol-5-yl)butanamido)piperidine-1-carboxylate] reads 7.68; that for `N#Cc1cc(Cl)cc(COC(=O)N2CCC(NCCCCc3c[nH]nn3)CC2)c1` [Example 75], 7.54.
For `O=C(NCC1CCN(C(=O)OCc2cc(Cl)cc(Cl)c2)CC1)c1cc(O)no1` [reference compound], the pIC50 under setting [2] was < 6.00.
Consider `O=C(/C=C/c1c[nH]cn1)N1CCN(C2CCN(C(=O)CCc3ccc(C(F)(F)F)cc3)CC2)CC1` [reference compound], for which the pIC50 under setting [2] is < 5.26.
Still for that read-out and setting: the figure for `O=C(CCCc1c[nH]nn1)NC1CCN(C(=O)OCc2ccccc2)CC1` [reference compound] is 5.86.

For orientation: pIC50 means −log10 of the IC50, conventionally taken in molar units.

The record behind these values is patent US20140171404A1, “Autotaxin inhibitors” (NOVARTIS AG, priority 2012, published 2014).
